The text below walks through data of patent US20260376293A1, “METHODS FOR STUDYING GPR158 PHARMACOLOGY AND IDENTIFICATION OF ITS LIGANDS” (UNIVERSITY OF FLORIDA RESEARCH FOUNDATION, INCORPORATED, priority 2022, published 2026).

Structures are written as SMILES.

Assay [1] relates to layer II-III pyramidal neurons of GPR158 KO mice. The assay can be described thus: Whole cell recordings, layer II-III neurons, GPR158 KO mice. The assay is classed as cell-based, mouse. Particulars: for rheobase current / number of action potentials fired / resting membrane potential: 1 mM, GPR158 KO; for number of action potentials fired: 200 pA current ramp; for resting membrane potential: layer II-III. How it is done: FIGS. 14A-14H. Effect of glycine on neuronal excitability. A) Schematic of the electrophysiological recordings in slice preparation targeting mPFC neurons of layer II-III. Experiments were conducted with a cocktail of synaptic blockers: picrotoxin (100 μM) (blockade of GABAA receptor chloride channels), strychnine (1 μM) (antagonist of glycine and acetylcholine ionotropic receptors), CNQX (20 μM) (AMPA receptors antagonist), and APV (50 μM) (NMDAR antagonist). B) Representative traces of voltage responses to a 200 pA current ramp injection under control conditions and after bath application of glycine (1 mM) in WT mice. C) Quantification of changes in excitability by number of action potentials fired in response to 200 pA current ramp (n=8 neurons from 5 mice). Nonparametric t-test; Wilcoxon test, **p<0.01. D) Quantification of changes in excitability by rheobase current under control condition and glycine application (n=8 neurons from 5 mice). Nonparametric t-test; Wilcoxon test, **p<0.01. E) Representative traces of voltage responses to a 200 pA current ramp injection obtained from layer II-III pyramidal neurons in GPR158 KO mice under control conditions and during bath application of glycine (1 mM). F) Quantification of changes in excitability by number of action potentials fired in response to 200 pA current ramp (n=4 neurons/3 mice). Nonparametric t-test; Wilcoxon test, ns=p>0.05. G) Quantification of changes in excitability by rheobase current under control condition and glycine application (n=4 neurons/3 mice). Nonparametric t-test; Wilcoxon test, ns=p>0.05. H) Schematic representation of the proposed mechanism of glycine effects on mGlyR. In 14C, 14D, 14F, and 14G, solid circles (Ctrl), circles with no fill (Glycine), columns with no fill (Ctrl), and columns with dotted fill (Glycine).
FIGS. 15A-15H. Effect of glycine and taurine on excitability of layer V neurons and membrane properties of layer II/III neurons in wild type and GPR158 knockout mice. A) Representative traces of voltage responses to a 200 pA current ramp injection obtained from layer V pyramidal neurons in WT mice under control conditions and during bath application of glycine (1 mM). B) Quantification of glycine effects on neuronal excitability by number of action potentials fired in response to 200 pA current ramp under control condition and glycine application (n=4 neurons/3 mice). Nonparametric t-test; Wilcoxon test, ns=p>0.05. C) Quantification of glycine effects on neuronal excitability by rheobase current under control condition and glycine application (n=4 neurons/3 mice). Nonparametric t-test; Wilcoxon test, ns=p>0.05. D) Resting membrane potential of layer V pyramidal neurons in WT mice under control conditions and during bath application of glycine (n=4 neurons/3 mice). Nonparametric t-test; Wilcoxon test, ns=p>0.05. E) Resting membrane potential of layer II-III pyramidal neurons in WT mice under control conditions and during bath application of glycine (n=6 neurons/4 mice). Nonparametric t-test; Wilcoxon test, ns=p>0.05. F) Resting membrane potential of layer II-III pyramidal neurons in GPR158 KO mice under control conditions and during bath application of glycine (n=4 neurons/3 mice). Nonparametric t-test; Wilcoxon test, ns=p>0.05. G) Resting membrane potential under control conditions and during bath application of taurine (n=9 neurons/5 mice). Paired t-test, p=0.4809. H) Resting membrane potential under control conditions and during bath application of taurine (n=5 neurons/4 mice) Nonparametric t-test; Wilcoxon test, ns=p>0.05, p>0.9999. In FIGS. 15B, 15C, 15D, 15E, and 15F, solid circles (Ctrl), circles with angled-line fill (Glycine), columns with no fill (Ctrl), columns with angled-line fill (Glycine). In 15G and 15H, solid circles (Ctrl), circles with no fill (Taurine), columns with no fill (Ctrl), columns with dotted fill (Taurine).
FIGS. 16A-16F Effect of taurine on neuronal excitability of layer II/III neurons. […]

Assay [2] relates to stress-induced depressive rat. Conditions: cited from earlier work.

Consider `NCC(=O)O` [glycine], for which, in assay [1], the rheobase current entry was “ns”, the “number of action potentials fired” value was “ns” and the resting membrane potential entry is reported as “ns”. Besides, the “excitability of layer II-III neurons” value in assay [1] (Gpr158 KO, glycine 1 mM) is on record as “failed to alter excitability”.

For the molecule `NCCS(=O)(=O)O` [taurine, 2-aminoethanesulfonic acid], in assay [1], the rheobase current entry is “ns”, the “number of action potentials fired” value is listed as “ns” and the resting membrane potential entry was “ns”. Moreover, the antidepressant effect result in assay [2] is listed as “antidepressant effect”.
